Results published in ChEMBL document CHEMBL1671823, “Novel Cyclic Phosphinic Acids as GABAC ρ Receptor Antagonists: Design, Synthesis, and Pharmacology” (ACS Med Chem Lett, 2011).
Calls of active or inactive are those of the source. The rule behind the calls is not given here.

Legend:
[1] = target: T1, Gamma-aminobutyric acid receptor subunit rho-1 (Homo sapiens, UniProt P24046); assay: Antagonist activity at human recombinant GABAc rho-1 receptor expressed in Xenopus laevis oocytes assessed as inhibition of GABA-induced current at 100 uM by two electrode voltage clamp technique; format: functional, cell-based; details: Oocyte
[2] = target: T2, GABA-A receptor; alpha-1/beta-2/gamma-2 (Homo sapiens) (UniProt P14867+P47870+P18507); assay: Antagonist activity at human recombinant GABAA alpha1beta2gamma2L receptor expressed in Xenopus laevis oocytes assessed as inhibition of GABA-induced current at 100 uM by two electrode voltage clamp technique; format: functional, cell-based; details: Oocyte
[3] = target: Gamma-aminobutyric acid receptor subunit rho-2 (Homo sapiens, UniProt P28476); assay: Antagonist activity at human recombinant GABAc rho-2 receptor expressed in Xenopus laevis oocytes assessed as inhibition of GABA-induced current by two electrode voltage clamp technique; format: functional, cell-based, Oocyte
[4] = target: T1, Gamma-aminobutyric acid receptor subunit rho-1; assay: Antagonist activity at human recombinant GABAc rho-1 receptor expressed in Xenopus laevis oocytes assessed as inhibition of GABA-induced current by two electrode voltage clamp technique; format: functional, cell-based, Oocyte; details: for Kb: Oocyte
[5] = target: T2, GABA-A receptor; alpha-1/beta-2/gamma-2 (Homo sapiens); assay: Antagonist activity at human recombinant GABAA alpha1beta2gamma2L receptor expressed in Xenopus laevis oocytes assessed as inhibition of GABA-induced current at 600 uM by two electrode voltage clamp technique; format: functional, cell-based; details: Oocyte
[6] = target: T3, GABA-B receptor (Homo sapiens) (UniProt Q9UBS5+O75899); assay: Antagonist activity at human recombinant GABAb 1b/2 receptor expressed in Xenopus laevis oocytes co-expressing GIRK1/4 assessed as inhibition of GABA-induced current at 300 uM by two electrode voltage clamp technique; format: functional, cell-based; details: Oocyte
[7] = target: T2, GABA-A receptor; alpha-1/beta-2/gamma-2 (Homo sapiens); assay: Antagonist activity at human recombinant GABAA alpha1beta2gamma2L receptor expressed in Xenopus laevis oocytes assessed as inhibition of GABA-induced current at 300 uM by two electrode voltage clamp technique; format: functional, cell-based; details: Oocyte
[8] = target: T1, Gamma-aminobutyric acid receptor subunit rho-1; assay: Antagonist activity at human recombinant GABAc rho-1 receptor expressed in Xenopus laevis oocytes assessed as inhibition of GABA-induced current at 600 uM by two electrode voltage clamp technique; format: functional, cell-based; details: Oocyte
[9] = target: GABA-B receptor (Homo sapiens, UniProt O75899+Q9UBS5); assay: Antagonist activity at human recombinant GABAb 1b/2 receptor expressed in Xenopus laevis oocytes co-expressing GIRK1/4 assessed as inhibition of GABA-induced current by two electrode voltage clamp technique; format: functional, cell-based, Oocyte
[10] = target: T3, GABA-B receptor (Homo sapiens); assay: […] activity at human recombinant GABAb 1b/2 receptor expressed in Xenopus laevis oocytes co-expressing GIRK1/4 assessed as inhibition of GABA-induced current by two electrode voltage clamp technique; format: functional, cell-based; details: Oocyte
[11] = target: T3, GABA-B receptor (Homo sapiens); assay: […] activity at human recombinant GABAb 1b/2 receptor expressed in Xenopus laevis oocytes co-expressing GIRK1/4 assessed as inhibition of GABA-induced current at 600 uM by two electrode voltage clamp technique; format: functional, cell-based; details: Oocyte
[12] = target: T3, GABA-B receptor (Homo sapiens); assay: […] activity at human recombinant GABAb 1b/2 receptor expressed in Xenopus laevis oocytes co-expressing GIRK1/4 assessed as inhibition of GABA-induced current at 10 uM by two electrode voltage clamp technique; format: functional, cell-based; details: Oocyte

Gamma-aminobutyric acid receptor subunit rho-2, sequence (P28476 whole entry): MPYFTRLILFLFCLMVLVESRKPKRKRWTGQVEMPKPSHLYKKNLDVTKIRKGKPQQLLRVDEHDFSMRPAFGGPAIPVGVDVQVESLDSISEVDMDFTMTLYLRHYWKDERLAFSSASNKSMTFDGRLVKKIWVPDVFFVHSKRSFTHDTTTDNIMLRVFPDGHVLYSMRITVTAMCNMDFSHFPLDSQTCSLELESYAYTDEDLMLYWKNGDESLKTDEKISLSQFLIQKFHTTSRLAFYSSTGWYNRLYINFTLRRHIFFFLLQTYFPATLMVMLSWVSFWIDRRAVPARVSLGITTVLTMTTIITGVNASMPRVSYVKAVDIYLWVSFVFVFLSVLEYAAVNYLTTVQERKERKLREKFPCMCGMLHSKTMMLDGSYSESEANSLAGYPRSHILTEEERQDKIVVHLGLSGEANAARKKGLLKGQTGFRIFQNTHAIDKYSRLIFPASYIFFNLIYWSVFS
T1 sequence (P24046 whole entry): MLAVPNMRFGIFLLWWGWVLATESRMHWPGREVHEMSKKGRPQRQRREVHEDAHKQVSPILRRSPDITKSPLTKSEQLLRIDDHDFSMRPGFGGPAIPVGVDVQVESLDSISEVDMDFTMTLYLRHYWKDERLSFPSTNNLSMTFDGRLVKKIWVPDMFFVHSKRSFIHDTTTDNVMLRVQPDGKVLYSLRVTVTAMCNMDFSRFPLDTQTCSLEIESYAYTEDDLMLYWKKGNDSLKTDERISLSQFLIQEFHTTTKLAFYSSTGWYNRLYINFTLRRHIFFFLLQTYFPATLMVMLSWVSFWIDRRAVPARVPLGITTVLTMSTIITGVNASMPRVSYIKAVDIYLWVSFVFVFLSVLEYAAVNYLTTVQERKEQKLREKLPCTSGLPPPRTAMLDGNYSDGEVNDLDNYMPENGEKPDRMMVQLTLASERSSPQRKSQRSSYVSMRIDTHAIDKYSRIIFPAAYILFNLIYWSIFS
GABA-B receptor, sequence (Q9UBS5 whole entry): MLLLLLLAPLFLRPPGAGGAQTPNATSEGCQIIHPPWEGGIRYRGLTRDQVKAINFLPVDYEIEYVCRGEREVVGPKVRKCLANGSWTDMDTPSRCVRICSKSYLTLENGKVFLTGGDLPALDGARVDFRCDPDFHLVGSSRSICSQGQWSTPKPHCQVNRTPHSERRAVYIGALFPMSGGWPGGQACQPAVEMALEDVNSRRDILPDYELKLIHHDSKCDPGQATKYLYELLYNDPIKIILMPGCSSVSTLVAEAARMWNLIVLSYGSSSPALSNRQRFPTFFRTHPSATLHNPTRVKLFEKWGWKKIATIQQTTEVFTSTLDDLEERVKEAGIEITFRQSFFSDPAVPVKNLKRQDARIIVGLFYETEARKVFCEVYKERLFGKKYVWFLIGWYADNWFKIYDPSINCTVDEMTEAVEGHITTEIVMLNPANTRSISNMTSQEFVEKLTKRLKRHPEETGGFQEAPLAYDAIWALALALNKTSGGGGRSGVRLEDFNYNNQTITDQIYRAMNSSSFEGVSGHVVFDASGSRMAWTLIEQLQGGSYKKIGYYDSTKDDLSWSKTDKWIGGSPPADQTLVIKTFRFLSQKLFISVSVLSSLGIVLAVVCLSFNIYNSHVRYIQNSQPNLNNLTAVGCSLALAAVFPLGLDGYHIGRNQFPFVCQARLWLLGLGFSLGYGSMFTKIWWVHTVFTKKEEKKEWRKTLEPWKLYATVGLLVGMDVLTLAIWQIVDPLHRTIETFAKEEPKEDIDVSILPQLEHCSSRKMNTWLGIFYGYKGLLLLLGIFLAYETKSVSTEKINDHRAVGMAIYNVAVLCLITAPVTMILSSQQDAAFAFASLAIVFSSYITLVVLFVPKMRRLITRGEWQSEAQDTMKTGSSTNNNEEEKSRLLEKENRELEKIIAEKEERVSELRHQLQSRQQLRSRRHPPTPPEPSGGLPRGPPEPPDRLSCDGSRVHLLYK
GABA-B receptor, sequence (O75899 whole entry): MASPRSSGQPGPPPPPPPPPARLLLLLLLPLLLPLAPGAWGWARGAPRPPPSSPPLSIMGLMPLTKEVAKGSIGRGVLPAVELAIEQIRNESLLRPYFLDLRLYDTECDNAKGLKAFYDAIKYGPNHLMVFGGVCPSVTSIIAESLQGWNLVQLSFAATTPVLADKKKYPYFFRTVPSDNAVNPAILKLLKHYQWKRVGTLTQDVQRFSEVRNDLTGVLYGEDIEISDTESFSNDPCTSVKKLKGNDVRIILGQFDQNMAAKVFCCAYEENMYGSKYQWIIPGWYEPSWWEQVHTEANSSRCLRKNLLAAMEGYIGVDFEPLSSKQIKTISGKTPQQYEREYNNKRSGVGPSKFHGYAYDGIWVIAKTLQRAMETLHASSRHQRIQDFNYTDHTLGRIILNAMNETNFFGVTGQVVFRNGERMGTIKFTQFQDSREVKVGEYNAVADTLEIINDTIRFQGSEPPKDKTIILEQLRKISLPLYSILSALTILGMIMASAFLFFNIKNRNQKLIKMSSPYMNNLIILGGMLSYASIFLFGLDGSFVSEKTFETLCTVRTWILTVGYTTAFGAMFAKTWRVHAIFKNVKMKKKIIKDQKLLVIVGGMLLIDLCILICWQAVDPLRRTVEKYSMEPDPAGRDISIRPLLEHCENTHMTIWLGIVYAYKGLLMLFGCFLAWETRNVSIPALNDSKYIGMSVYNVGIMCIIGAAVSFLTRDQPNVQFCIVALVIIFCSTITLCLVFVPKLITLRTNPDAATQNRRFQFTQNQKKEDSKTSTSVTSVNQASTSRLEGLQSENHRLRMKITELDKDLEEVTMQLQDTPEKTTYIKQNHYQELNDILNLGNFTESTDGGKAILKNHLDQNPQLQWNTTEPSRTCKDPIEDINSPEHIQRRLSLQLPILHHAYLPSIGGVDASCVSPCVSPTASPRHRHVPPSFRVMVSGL

In the case of `O=P1(O)CCC(CO)C1` (stereo not drawn), the inhibition [1] is reported as “inactive” and the inhibition [2] is reported as “inactive”.

Compound `N=C(N)NC1CCP(=O)(O)C1` (stereo not drawn) has an IC50 [3] of 51.3 µM, an IC50 [4] of 29.7 µM and a Kb [4] of 10 µM. The inhibition [5] was 29.2%.

For `CCCCP(=O)(O)C1=CC[C@H](N)C1`, the inhibition [6] was 22.5%, the Kb [4] was 2.1 µM and the inhibition [7] was 24.2%.

`O=C(O)C1CCP(=O)(O)C1` (stereo not drawn) was tested, and the inhibition [1] was “inactive” and the inhibition [2] was “inactive”.

With `NC1CCP(=O)(O)C1` (stereo not drawn) the inhibition [5] was “inactive” and the inhibition [8] was “inactive”.

`CP(=O)(O)C1=CCNCC1` showed an IC50 [3] of 22.1 µM, a Kb ([3]; Oocyte) of 14.9 µM and an EC50 [9] of 500 µM. The IC50 [4] was 2.22 µM.

With `NCC1CCP(=O)(O)C1` (stereo not drawn) the inhibition [10] was “Dose-dependent effect”, the IC50 [3] was 57.1 µM and the inhibition [11] was 45.2%. For the same compound, the IC50 [4] was 19.9 µM, the inhibition [5] was “inactive” and the inhibition [12] was “inactive”.
